This is an account of results in patent US20250338846A1, “COMPOSITIONS HAVING PESTICIDAL UTILITY AND PROCESSES RELATED THERETO” (CORTEVA AGRISCIENCE, LLC, priority 2022, published 2025).

Assay [1] concerns Green Peach Aphid (Myzus persicae, MYZUPE). Kind of assay: Bioassay 1: Green Peach Aphid, foliar spray on infested cabbage seedlings, live aphids counted three days after treatment. In kind it is in vivo. The protocol: Bioassay 1: Green Peach Aphid (Myzus persicae, MYZUPE) (“GPA”).
The stock solutions were prepared with Formula One as well as for each of the active ingredients individually. Test solutions were prepared from the stock solutions. Test solutions were prepared containing Formula One, the individual active ingredients, and mixtures of Formula One with each of the active ingredients. The test solutions for Formula One and the individual active ingredients were prepared by adding 750 microliters (μL) of stock solution to a 25 mL glass vial, then adding 750 μL of 1:1 acetone: methanol solvent, followed by the addition of 13.5 ml water with 0.025% Tween®) 20 to create a 0.0005% (weight/volume (w/v)) solution. The test solutions containing mixtures of Formula One and the individual active ingredients were prepared by adding 750 μL of the active ingredient stock solution to a 25 mL glass vial, followed by 750 μL of the Formula One stock solution, then by the addition of 13.5 mL water with 0.025% Tween®) 20 to create a test solution containing 0.0005% (w/v) Formula One and 0.0005% (w/v) of the active ingredient. Each test solution was serially diluted to create desired doses of test solutions (0.0005% (w/v), 0.000125% (w/v), 0.00003125% (w/v), 0.0000078% (w/v), 0.00000195% (w/v), and 0.0000005% (w/v)).
The test solutions were tested against GPA using the following procedure: Cabbage seedlings, grown in 3-inch pots with 2-3 small (3-5 centimeter (cm)) true leaves, were used as test substrate. The seedlings were infested with 20-50 GPA (wingless adult and nymph stages) one day prior to chemical application. Four pots with individual seedlings were used for each treatment. A hand-held aspirator-type sprayer was used for spraying a solution to both sides of […] leaves until runoff. Reference plants (solvent check) were sprayed with the diluent only (0.025% Tween®) 20 and 10% acetone:methanol (1:1) in water). Treated plants were held in a holding room for three days at approximately 25° C. and ambient relative humidity (RH about 20% to about 45%) prior to grading. Evaluation was conducted by counting the number of live aphids per plant under a microscope three days after treatment. Percent control was measured using Abbott's correction formula (W. S. Abbott, J. Econ. Entomol. 18 (1925), pp. 265-267) as follows:
where X=No. of live aphids on solvent check plants and Y=No. of live aphids on treated plants. In Table B1 the “Expected % Control” was calculated using the method described in Colby S. R., Weeds, 1967, 15, 20-22. Bioassay 2: Sweet Potato Whitefly (Bemisia tabaci, BEMITA) (“SPW”).

The test system of assay [2] is Western Tarnished Plant Bug (Lygus hesperus, LYGUHE). Kind of assay: Bioassay 4: Western Tarnished Plant Bug, soaked green bean segments, living nymphs 3 days after application. In kind it is in vivo. The protocol: where X=No. of live nymphs on solvent check leaf discs and Y=No. of live nymphs on treated leaf discs. In Table B3 the “Expected % Control” was calculated using the method described in Colby S. R., Weeds, 1967, 15, 20-22. Bioassay 4: Western Tarnished Plant Bug (Lygus hesperus, LYGUHE) (“WTPB”).
Stock solutions were prepared with Formula One as well as for each of the active ingredients individually. Test solutions were prepared from the stock solutions. Test solutions were prepared containing Formula One, the individual active ingredients, and mixtures of Formula One with each of the active ingredients. The test solution for Formula One was prepared by adding 500 μL of the stock solution to a 25 mL glass vial, then adding 500 μL of acetone, followed by the addition of 9 mL water with 0.025% Tween®) 20 to create a 0.04% (w/v) solution. The test solutions of the individual active ingredients were prepared by adding 500 μL of stock solution to a 25 mL glass vial, then adding 500 μL of acetone, followed by the addition of 9 mL water with 0.025% Tween®) 20 to create a 0.005% (w/v) solution. The test solutions containing mixtures of Formula One and the individual active ingredients were prepared by adding 500 μL of the active ingredient stock solution to a 25 mL glass vial, followed by 500 μL of the Formula One stock solution, then by the addition of 9 mL water with 0.025% Tween®) 20 to create a test solution containing 0.04% (w/v) Formula One and 0.005% (w/v) of the active ingredient. Each test solution was serially diluted to create desired doses of test solutions (0.005% (w/v), 0.00125% (w/v), 0.0003125% (w/v), 0.000078% (w/v), and 0.0000195% (w/v)). In test solutions containing mixtures of Formula One and the active ingredients, the active ingredients were diluted as described above, but the Concentration of Formula One was held constant (0.04% (w/v)).
The test solutions were tested against WTPB using the following procedure: Fresh green beans were cut into segments approximately 1.5 inches long. Four bean segments were added to each 25 mL vial containing the test solutions and soaked for approximately 15 minutes. After soaking, a single bean fragment was removed and placed into a single well of a 32-well rearing tray (Frontier Agricultural Sciences™), on top of a round filter paper disc. A reference treatment (solvent check) was treated with the diluent only. Each treatment was replicated four times and the test treatments were held at approximately 26° C. and ambient relative humidity (RH) prior to grading. Bean segments were allowed to air dry for ˜30 minutes. Three WTPB nymphs were added to and contained in each well with a clear perforated adhesive lid. The total number of living WTPB nymphs was recorded 3 days after application. Scoring was based off the total number of living nymphs out of all four replicates. Percent control was measured using Abbott's correction formula (W. S. Abbott, J. Econ. Entomol. 18 (1925), pp. 265-267) as follows:
X=No. of live nymphs on solvent check and Y=No. of live nymphs on treated bean segments. In Table B4 the “Expected % Control” was calculated using the method described in Colby S. R., Weeds, 1967, 15, 20-22. Bioassay 5: Neotropical Brown Stink Bug (Euschistus heros, EUSCHE) (“BSB”).

“And” between values parts separate entries of the source, which are not always exact repeats. Equal values may be shown once.

Turning to `Cc1c(COC(=O)[C@@H]2[C@H](/C=C(\Cl)C(F)(F)F)C2(C)C)cccc1-c1ccccc1` (racemic) [Bifenthrin], the “Average % Control AI” value in assay [1] (AI alone 0.78 (10^-5) % w/v) amounted to 52%; in assay [2] (AI alone 0.00125 % w/v), 17%.
Regarding `CC1(C)[C@H](C(=O)O[C@H](C#N)c2cccc(Oc3ccccc3)c2)[C@@H]1/C=C(\Cl)C(F)(F)F` (racemic) [Lambda Cyhalothrin], the results for the “Average % Control AI” value in assay [1] (AI alone 0.78 (10^-5) % w/v) and in assay [2] (AI alone 0.000078 % w/v) were 40% and 0%, respectively.
Turning to `COP(=O)(NC(C)=O)SC` (stereo not drawn) [Acephate], in assay [2] (AI alone 0.005 % w/v), the “Average % Control AI” value amounted to 0%.
Consider `C/C(=N\C#N)N(C)Cc1ccc(Cl)nc1` [Acetamiprid], for which the “Average % Control AI” value in assay [1] (AI alone 0.78 (10^-5) % w/v) is listed as 24%; in assay [2] (AI alone 0.00125 % w/v), 0%.
For the compound `CC[S+]([O-])c1c(C#N)nn(-c2c(Cl)cc(C(F)(F)F)cc2Cl)c1N` (stereo not drawn) [Ethiprole], the “Average % Control AI” value in assay [1] (AI alone 3.125 (10^-5) % w/v) was determined as 0%.
As for `CON=CNC(=O)c1ccc(C2=NOC(c3cc(Cl)cc(Cl)c3)(C(F)(F)F)C2)cc1C` (stereo not drawn) [Fluxametamide], the “Average % Control AI” value in assay [1] (AI alone 12.5 (10^-5) % w/v) stood at 0%.
Consider `CCN(C(=O)CCS(C)(=O)=O)c1sc(-c2cccnc2)nc1Cl` [Formula F1, N-(4-chloro-2-(pyridin-3-yl)thiazol-5-yl)-N-ethyl-3-(methylsulfonyl)propanamide], for which the “Average % Control F1” value was 29% in assay [1] (F1 alone 0.05 (10^-5) % w/v); 13% in assay [1] (F1 alone 0.195 (10^-5) % w/v); 28% in assay [1] (F1 alone 0.78 (10^-5) % w/v); 30% and 35% in assay [1] (F1 alone 3.125 (10^-5) % w/v); 39% in assay [1] (F1 alone 12.5 (10^-5) % w/v).
As for `O=[N+]([O-])NC1=NCCN1Cc1ccc(Cl)nc1` [Imidacloprid], in assay [2] (AI alone 0.00125 % w/v), the “Average % Control AI” value stood at 13%.
With `CN1COCN(Cc2cnc(Cl)s2)/C1=N\[N+](=O)[O-]` [Thiamethoxam], the “Average % Control AI” value in assay [2] (AI alone 0.0003125 % w/v) turned out to be 65%.
Consider Abamectin, for which, in assay [2] (AI alone 0.00125 % w/v), the “Average % Control AI” value worked out at 0%.
Turning to Emamectin Benzoate, the “Average % Control AI” value in assay [1] (AI alone 3.125 (10^-5) % w/v) came to 21%.
